Results published in patent US8690874B2, “Composition and process for bone growth and repair” (Zimmer Orthobiologics, Inc., priority 2000, dated 2014).
“And” between values parts separate entries of the source, which are not always exact repeats. Equal entries are not always repeated. “Also recorded” adds a separate entry of the source. Where two headings read alike, the source gives them in different places.

How the values were obtained:
[1] = system: subcutaneous rat implant model; test: Subcutaneous rat implant model, collagen/GFm sponges supplemented with calcium phosphates (Example 3/5); type: in vivo; conditions: for Average Mineral Mass / Average Explant Mass / Average Histology Score [0-5]: inter-animal average; for Average Mineral Mass: ash weight; for Average Explant Mass: collagen 7 mg + GFm 10 μg, additive 7 mg (50 wt. %); for Average Histology Score [0-5] / Histology score, Direct Comparison Averages [0-5]: scoring of Table 7; for Explant mass, Direct Comparison Averages / Mineral mass, Direct Comparison Average / Histology score, Direct Comparison Averages [0-5]: intra-animal comparison subset; for Explant mass, Direct Comparison Δwt. % / Histology score, Direct Comparison [%] / Mineral mass, Direct Comparison Δwt. %: relative to intra-animal collagen/GFm control; for bone quality and maturity in histological sections: photomicrographs FIG. 15, H&E/Von Kossa, toluidine blue; for effect on explant and mineral mass: versus collagen controls / other compositions
Method: The advantages of the rat model for product evaluation include an accelerated rate of bone induction. Visible evidence of mineralization appears in the implant within several days (˜10), with typical experiments lasting between 14 and 21 days. The testing protocol involved implantation of porous collagen (bovine tendon Type 1, 7 mg, 96 vol. % porosity) samples containing a natural mixture of bovine, osteoinductive proteins (GFm, 10 μg). […] Samples were implanted in four subcutaneous sites including the upper quadrants of the abdomen (sites 1, 2) and the upper quadrants of the dorsal thorax (sites 6, 7). The osteoinductive differences between controls and calcium phosphate supplemented samples [7 mg, 50 wt. %] were assessed using three standard test protocols: histological tissue analysis and mineral composition via x-ray and ash weight analysis (Intermedics Orthopedics/Denver, Inc. Histology protocol STM 009; Intermedics Orthopedics/Denver, Inc. Alkaline phophatase protocol STM 0024, 0026).
Samples were assessed in comparison to two different control sample populations, including: collagen sponges and collagen/GFm sponges supplemented with 50 wt % devitalized bone matrix (DVBM) additives. The collagen/GFm control samples were used as a reference for a baseline osteoinductive response. A calcium phosphate additive was considered detrimental if it either reduced the explant or mineral mass values or if it negatively influenced bone maturation. […] These samples were prepared as an alternative for demineralized bone matrix (DBM) additives. Demineralized bone matrix provides both an ideal osteoconductive matrix for cellular invasion and bone mineralization and a pooled concentration of osteoinductive proteins.
ANOVA was performed without data replications turning the analysis into an expanded pool Student-T test. Statistical significance was predicted using α<0.05. […] Compositions that had no significant influence on mass are indicated in plain text. Compositions that stimulated a statistically significant improvement in mass are indicated in bold text [Tables 5 and 6].
The quality and skeletal maturity of produced bone was assessed through histological microscopic analysis of thin, stained tissue sections. […] Thin sections (4 μm) from the explant midlines were obtained with a microtome. One section was stained with hematoxylin & eosin (H&E) and one was stained with toluidine blue to highlight important cellular details. The H&E sections were counterstained with silver nitrate (Von Kossa technique) to highlight mineralized tissue components. The histological sections were scored for quality and maturity using a scoring system, outlined in Table 7, previously developed by Sulzer Biologics according to STM-021. […]

[2] = Equilibrium solubility of calcium and phosphate ions from calcium phosphate salts; type: physicochemical
[3] = pH buffering potential of calcium salts; type: physicochemical
[4] = equilibrium solubility of the salt

Compound | Average Mineral Mass [1] | Average Explant Mass [1] | Average Histology Score [0-5] [1] | Explant mass, Direct Comparison Averages [1] | Mineral mass, Direct Comparison Average [1] | Histology score, Direct Comparison Averages [0-5] [1] | Explant mass, Direct Comparison Δwt. % [1] | Histology score, Direct Comparison [%] [1] | Mineral mass, Direct Comparison Δwt. % [1] | improvement in histological score ([1]; intra-animal, relative to collagen control) | bone quality and maturity in histological sections [1] | Explant mass, Direct Comparison Δwt. % ([1]; listed as 2CaO.P2O5) | Mineral mass, Direct Comparison Δwt. % ([1]; listed as 2CaO.P2O5) | effect on explant and mineral mass [1] | histological score / osteoinductive performance, statistical comparison ([1]; α<0.05) | Insoluble fraction [200 mg/cc] ([2]; 200 mg/cc) | Equilibrium [Ca^2+] [2, 4] | Equilibrium [PO4^3−] [2, 4] | pH (buffering potential of the salt) [3] | pH (buffering potential of the salt) ([3]; listed as Hydroxyapatites)
O=P([O-])([O-])[O-].O=P([O-])([O-])[O-].[Ca+2].[Ca+2].[Ca+2] [3CaO•P2O5 (β-TCP), tricalcium phosphate] | 8.1 mg | 80.1 mg | 1.3 | 71.6 mg | 5.7 mg | 1.3 | −26.3% wt. % | −23.9% | −31.6% wt. % |  |  |  |  |  |  |  |  |  |  | 
hydroxyapatite [3.33CaO•P2O5 (HA-px)] | 19.8 mg | 113.5 mg | 1.4 | 124.7 mg | 21.9 mg | 2.0 | +4.5% wt. % | −26.7% | +74.3% wt. % |  |  |  |  |  |  |  |  |  |  | 
O=C([O-])[O-].[Ca+2] [CaCO3 (aragonite), calcium carbonate] | 10.4 mg | 69.4 mg | 1.0 | 88.6 mg | 14.5 mg | 1.0 | −27.3% wt. % | −63.9% | +3.8% wt. % |  |  |  |  |  |  |  |  |  |  | 
hydroxyapatite [3.33CaO•P2O5 (HA-am)] | 26.5 mg and 29.4 mg | 129.9 mg and 117.9 mg | 1.3 and 1.4 | 120.3 mg and 140.6 mg | 27.1 mg and 30.4 mg | 1.2 and 1.7 |  |  |  |  |  |  |  |  |  |  |  |  |  | 
O=C([O-])[O-].[Ca+2] [CaCO3 (calcite), calcium carbonate] | 7.9 mg | 67.4 mg | 1.0 | 73.1 mg | 8.1 mg | 1.0 | −28.0% wt. % | −58.3% | −3.2% wt. % |  |  |  |  |  |  |  |  |  |  | 
O=P([O-])([O-])[O-].O=P([O-])([O-])[O-].[Ca+2].[Ca+2].[Ca+2] [3CaO•P2O5 (α-TCP), tricalcium phosphate] | 6.5 mg | 39.5 mg | 1.1 | 58.7 mg | 9.4 mg | 1.3 | −42.9% wt. % | −35.1% | −28.3% wt. % |  |  |  |  |  |  |  |  |  |  | 
hydroxyapatite [3.33CaO.P2O5(OH)2 (Calcitek)] |  |  |  |  |  |  | +44.1 wt. % |  | +279.6 wt. % |  |  |  |  |  |  |  |  |  |  | 
O=P([O-])([O-])OP(=O)([O-])[O-].[Ca+2].[Ca+2] [2CaO•P2O5•2H2O (CP), calcium pyrophosphate] | 20.8 mg | 126.2 mg | 2.3 | 170.3 mg | 31.5 mg | 2.3 | +99.6% wt. % | +11.1% | +163.0% wt. % | +163 wt. % | comparatively reduced in maturity but were greater than control samples | +99.6 wt. % | +263 wt. % | appreciably enhanced; also recorded: significantly enhanced explant and mineral mass values | Statistically superior improvements in histological score |  |  |  |  | 
O=C([O-])[O-].[Ca+2] [calcium carbonates, calcium carbonate] |  |  |  |  |  |  |  |  |  |  | comparatively reduced |  |  |  |  |  |  |  |  | 
hydroxyapatite [Ca5(PO4)3(OH) (HA)] |  |  |  |  |  |  |  |  |  |  | negative effect on bone ossicle maturation; also recorded: comparatively reduced |  |  | appreciably enhanced |  | 99.9999 wt. % | 2.2 µM | 1.3 µM | ~8.5 and ~9 | ~8
